Test results taken from US4100346A, “Certain 7(o-amino-methyl- or methylaminomethylphenyl- or cyclohexadienyl- or thienylacetamide)-3[1-carboxymethyl-(or ethyl- or propyl-)-tetrazol-5-ylthiomethyl]-3-cephem-4-carboxylic acids” (Bristol-Myers Company, priority 1976, dated 1978).
In brackets after ≈: the same amount, converted by molar mass.

Assays:
[1] = Stability in solution, 0.005 M phosphate buffer pH 7.4, 37° C.; format: physicochemical; conditions: pH 7.4 and 37° C.
Experimental: Stability in Solution. Stability in solution was determined at 37° C. in 0.005 M phosphate buffer of pH 7.4. […] Residual antibiotic activity was determined periodically over a 24-hour period by a turbidimetric assay procedure or by an antibiotic diffusion technique (cephalothin).

Streptococcus faecalis = assay: Growth inhibitory activity, antibiotic dilution technique
Pr. mirabilis = assay: M.I.C. by Tube Dilution in Nutrient Broth (Examples 1 and 2); format: cell-based; conditions: Proteus mirabilis; Pr. mirabilis A9900 (10^-4)
Description: (§1) | **Dilution of overnight broth culture

Ps. aeruginosa = assay: as above; format: cell-based; conditions: Pseudomonas aeruginosa
Description: as §1

K. pneumoniae = assay: as above; format: cell-based; conditions: Klebsiella pneumoniae
Description: as §1

S. aureus [2] = assay: as above; format: cell-based; conditions: Staphylococcus aureus
Description: as §1

Sal. enteritidis = assay: as above; format: cell-based; conditions: Salmonella enterica; Sal. enteritidis A9531 (10 ^4)
Description: as §1

E. coli = assay: as above; format: cell-based; conditions: Escherichia coli, E. coli A9675 (10^-4)
Description: as §1

Pr. morganii = assay: as above; format: cell-based; conditions: Morganella morganii; Pr. morganii A15153 (10^-4)
Description: as §1

Ent. cloacae = assay: as above; format: cell-based; conditions: Enterobacter cloacae
Description: as §1

Ser. marcescens = assay: as above; format: cell-based; conditions: Serratia marcescens; Ser. marcescens A20019 (10^-4)
Description: as §1

S. viridans = assay: Growth inhibitory activity, antibiotic dilution technique; conditions: Streptococcus viridans, read-out: concentration inhibiting all strains
E. cloacae = assay: MIC by Tube Dilution Technique in Nutrient Broth (Example 9 table); format: cell-based; conditions: Enterobacter cloacae; El-1 E. cloacae A9656
Description: MIC (mcg./ml.) by Tube Dilution Technique in Nutrient Broth.

[3] = test system: Escherichia coli, Klebsiella pneumoniae, Proteus mirabilis, Proteus vulgaris, Salmonella sp., Shigella sp. and Neisseria meningitidis; assay: Growth inhibitory activity, antibiotic dilution technique (text summary); format: cell-based; conditions: growth inhibitory activity vs cephalothin, cephaloridine, cefazolin
[4] = Solubility in water, buffer or urine; conditions: soluble as Na^+ salt, as Na^+ salt
Str. pyogenes = assay: M.I.C. by Tube Dilution in Nutrient Broth (Examples 1 and 2); format: cell-based; conditions: Streptococcus pyogenes; Str. pyogenes A9604 (10^-3); 45% Antibiotic Assay Broth + 50% Nutrient Broth + 5% serum
Description: (§2) *45% Antibiotic Assay Broth + 50% Nutrient Broth + 5% serum
(§3) **Dilution of overnight broth culture

Str. pneumoniae = assay: as above; format: cell-based; conditions: Streptococcus pneumoniae; Str. pneumoniae A9585 (10^-3 dilution of overnight broth culture); 45% Antibiotic Assay Broth + 50% Nutrient Broth + 5% serum
Description: as §2, §3

S. pneumoniae = assay: Growth inhibitory activity, antibiotic dilution technique; conditions: Streptococcus pneumoniae, read-out: concentration inhibiting all strains
[5] = test system: Mycobacterium tuberculosis; format: cell-based
S. aureus [6] = assay: Growth inhibitory activity, antibiotic dilution technique; conditions: 63 strains tested
[7] = test system: Enterobacter sp. and Citrobacter sp.; assay: Growth inhibitory activity, antibiotic dilution technique (text summary); conditions: compared with cephalothin, cephaloridine, cefazolin

NCc1ccccc1CC(=O)N[C@@H]1C(=O)N2C(C(=O)O)=C(CSc3nnnn3CC(=O)O)CS[C@H]12 [Example 1]
half-life [1]: > 24 h
susceptibility of Streptococcus faecalis (Streptococcus faecalis): resistant
MIC (Pr. mirabilis): 0.13 µg/mL (≈ 0.25 µM)
MIC (Ps. aeruginosa): > 125 µg/mL
MIC (K. pneumoniae; K. pneumoniae A9977 (10^-4)): 0.13 µg/mL (≈ 0.25 µM)
MIC (K. pneumoniae; K. pneumoniae A15130 (10^-4)): 2 µg/mL (≈ 3.85 µM)
MIC (S. aureus [2]; S. aureus BX1633 A9606 (10^-2)): 2 µg/mL (≈ 3.85 µM)
MIC (S. aureus [2]; S. aureus BX1633 A9606 (10^-3)): 1 µg/mL (≈ 1.92 µM)
MIC (S. aureus [2]; S. aureus Meth-Res A15097 (10^-3)): 4 µg/mL (≈ 7.7 µM)
MIC (S. aureus [2]; S. aureus Smith A9537 (10^-4)): 1 µg/mL (≈ 1.92 µM)
MIC (S. aureus [2]; S. aureus-50% serum A9537 (10^-4)): 4 µg/mL (≈ 7.7 µM)
MIC (Sal. enteritidis): 0.06 µg/mL (≈ 0.115 µM)
MIC (E. coli): 16 µg/mL (≈ 30.8 µM)
MIC (Pr. morganii): 32 µg/mL (≈ 61.6 µM)
MIC (Ent. cloacae; Ent. cloacae A9657 (10^-4)): 0.25 µg/mL (≈ 0.481 µM)
MIC (Ent. cloacae; Ent. cloacae A9659 (10^-4)): 32 µg/mL (≈ 61.6 µM)
MIC (Ent. cloacae; Ent. cloacae A9656 (10^-4)): > 125 µg/mL
MIC (Ser. marcescens): 125 µg/mL (≈ 241 µM)
MIC (S. viridans): 4 µg/mL (≈ 7.7 µM)
MIC (E. cloacae): 50 µg/mL (≈ 96.2 µM)
times more active than the reference cephalosporins [3]: 2 to 16
solubility [4]: ≥ 250 mg/mL
MIC (Str. pyogenes): 0.13 µg/mL
MIC (Str. pneumoniae): 0.13 µg/mL
MIC (S. pneumoniae): 0.25 µg/mL (≈ 0.481 µM)
times more active than the control compounds [5]: 4 to 32
number of strains of S. aureus inhibited (S. aureus [6]; at 4 mcg./ml.): 62 strains
number of strains of S. aureus inhibited (S. aureus [6]; at 8 mcg./ml.): 63 strains
activity against Enterobacter sp. and Citrobacter sp. [7]: alone was active
